Test results reported in patent publication US11890335B2, “ErbB peptide pharmaceutical and vaccine compositions and therapeutic uses thereof for cancer” (L2 Diagnostics, LLC, priority 2017, dated 2024).
“Also recorded” adds a separate entry of the source. *1 amine or outer side, *2 acyl side, *3 side chain or, on linkers, in order; H or OH if unused. Where a SMILES comes first, the peptide text is derived from it. [ ]: non-standard residue; d: D form. βAsp = O=C(O)[C@H](CC(=O)[*:2])N[*:1]

Assays:
A431 cells [1] = assay: ADCC assay with human PBMC, A431 cells; type: cell-based; conditions: 1:25 serum or 20 μg/ml antibody, human PBMC 50:1, 4 h
Experimental: (§1) All experimental sera were heat-inactivated (56° C., 30 min) prior to use. A431 or MDA-MB-453 cells were incubated with a 1:25 dilution of heat-inactivated sera or control antibody (20 μg/ml) 30 min at 37° C. in 96-well U bottom plates. Freshly isolated human peripheral blood mononuclear cells (PBMC) from healthy donors were incubated with antibody coated target cells at a 50:1 effector to target ratio for 4 h at 37° C. Fifty microliters of each cell culture supernatant was then assayed for lactate dehydrogenase released from dead cells using the CytoTox96 Non-Radioactive Cytotoxicity Assay (Promega) per manufacturer's instructions. Percent cytotoxicity was calculated as [(experimental-effector spontaneous-target spontaneous)/(target maximum-target spontaneous)]×100.

[2] = mouse, in vivo
human EGFR on A431 cells = assay: Flow cytometry, binding to A431 cells; conditions: for Staining of A431 cells by flow cytometry: serum 1:100 or cetuximab 5 μg/ml
Experimental: (§2) Cells (10^5 cells/sample) were stained with a 1:100 dilution of serum in PBS with 0.1% BSA and 0.05% sodium azide for 1 h at 4° C. Cells were washed and incubated with a 1:100 dilution of either anti-mouse IgG fluorescein isothiocyanate (FITC; Sigma) or anti-human IgG AlexaFluor 488 (Molecular Probes, Invitrogen) for 1 h at 4° C. Some samples were further stained using anti-FITC AlexaFluor 488. Cells were washed and fixed in PBS+1% paraformaldehyde. Cells were analyzed on a FACSCalibur (BD Biosciences) with FlowJo software (Tree Star). Controls included unstained cells and cells stained with secondary antibody alone.

MDA-MB-453 cells [3] = assay: ADCC assay with human PBMC, MDA-MB-453 cells; type: cell-based; conditions: 1:25 serum or 20 μg/ml antibody, human PBMC 50:1, 4 h, compared to rituximab
Experimental: as §1

A431 cells [4] = conditions: isotype control 10 μg/ml, data not shown
MDA-MB-453 cells [5] = conditions: control antibodies, 10-40 mg/ml concentrations tested
Experimental: Cells were incubated for three days with 1:25 dilutions of sera from either Asp or isoAsp p580 immunized Balb/c mice. Cell proliferation was measured by 3H-thymidine incorporation.

native HER2 = native HER2 (Homo sapiens, UniProt P04626); conditions: Garrett J T et al. (2007); cited from earlier work
HER4 p578 peptide = biological target: T1, HER4 p578 peptide (Homo sapiens, UniProt Q15303); assay: ELISA, immune serum binding to HER4 p578 peptide; conditions: data not shown
T1 construct: host or cells: chemical synthesis
Experimental: (§3) Polystyrene microtiter plates (Nunc) were coated with either 50 μg/ml peptide or 1 μg of rHER2 or rHER3 extracellular domains in buffer (0.05 M carbonate-bicarbonate buffer, pH 9.6; Sigma) and incubated overnight at 4° C. Wells were washed, blocked with PBS containing 3% bovine serum albumin (BSA) followed by the addition of serum samples (1:100 dilution) for 2 h at room temperature. Alkaline phosphatase conjugated-goat anti-mouse IgG antibody (Southern Biotech) was added to the wells at a 1:1000 dilution and incubated at room temperature for 1.5 h. Wells were washed one last time, and developed by the addition of the substrate p-nitrophenyl phosphate (Sigma). Wells were read on a SpectraMax 450 ELISA reader (Molecular Dynamics) at 405 nm.

[6] = tested on: T cells from EGFR p580 immunized mice; assay: T cell proliferation assay, 3H-thymidine; type: cell-based; conditions: lymph node cells of immunized C57BL/6 mice re-stimulated 72 h with peptide
TUBO-EGFR cells = assay: In vivo tumor assay, TUBO-EGFR cells s.c. in immunized mice; conditions: immunized Balb/c mice, days 11, 13 and 18
Text: (§4) Female Balb/c or female C57BL/6 mice, 6-8 weeks old, were obtained from the National Cancer Institute. All mice were housed at the Yale University School of Medicine Animal Facility. All protocols were consistent with accepted guidelines of the National Institutes of Health for the care and use of laboratory animals as well as approved by the Yale University Institutional Animal Care and Use Committee. For the generation of antibody, three to five Balb/c or C57BL/6 mice per group were immunized intraperitoneally and subcutaneously in one footpad with 100 μg of peptide emulsified 1:1 of PBS and complete Freund's adjuvant (CFA). Twenty-one days later, mice were boosted intraperitoneally and subcutaneously in the other footpad with 100 μg of immunizing peptide emulsified in incomplete Freund's adjuvant (IFA). Sera were collected via retro-orbital bleed at day 28 for antibody analyses. For T cell assays, mice were immunized by the same route of administration with 100 μg of peptide emulsified 1:1 in CFA. […]
Female Balb/c mice were immunized with either Asp or isoAsp EGFR p580 as described above for the generation of antibody. […] Tumor volume was calculated by measuring three orthogonal axes (a, b, and c) with digital calipers, with the tumor volume=abc/2 (Cho H S et al. (2003) Nature 421:756-60).

[7] = tested on: MDA-MB-453 cells (HER2-positive, EGFR-negative); assay: Flow cytometry, binding to MDA-MB-453 cells; set-up: species or system human; conditions: serum 1:100 or antibody 5 μg/ml
Experimental: as §2

HER3 p574 peptide = biological target: T2, HER3 p574 peptide (Homo sapiens, UniProt P21860); assay: ELISA, immune serum binding to HER3 p574 peptide; conditions: sera from Balb/c mice
T2 construct: host or cells: chemical synthesis
Experimental: as §3

EGFR peptides = assay: ELISA, antisera against the panel of EGFR peptides; type: binding, murine (mu) and human (hu); conditions: 100 μg peptide in CFA, boost in IFA, sera day 28
Text: as §4
Polystyrene microtiter plates (Nunc) were coated with either 50 μg/ml peptide or 1 μg of rHER2 or rHER3 extracellular domains in buffer (0.05 M carbonate-bicarbonate buffer, pH 9.6; Sigma) and incubated overnight at 4° C. […] Wells were read on a SpectraMax 450 ELISA reader (Molecular Dynamics) at 405 nm.

HER2 p585 peptide = biological target: T3, HER2 p585 peptide (Homo sapiens, UniProt P04626); assay: ELISA, immune serum binding to HER2 p585 peptide; conditions: sera from Balb/c mice
T3 construct: host or cells: chemical synthesis
Experimental: as §3

[8] = biological target: T4, recombinant HER3 extracellular domain (Homo sapiens, UniProt P21860); assay: ELISA, immune serum binding to recombinant HER3 extracellular domain; conditions: serum 1:100 dilution
T4 construct: Recombinant human HER3 extracellular domain was purchased from R&D Systems; purchased R&D Systems
T4 sequence (P21860 20-643 limits assumed): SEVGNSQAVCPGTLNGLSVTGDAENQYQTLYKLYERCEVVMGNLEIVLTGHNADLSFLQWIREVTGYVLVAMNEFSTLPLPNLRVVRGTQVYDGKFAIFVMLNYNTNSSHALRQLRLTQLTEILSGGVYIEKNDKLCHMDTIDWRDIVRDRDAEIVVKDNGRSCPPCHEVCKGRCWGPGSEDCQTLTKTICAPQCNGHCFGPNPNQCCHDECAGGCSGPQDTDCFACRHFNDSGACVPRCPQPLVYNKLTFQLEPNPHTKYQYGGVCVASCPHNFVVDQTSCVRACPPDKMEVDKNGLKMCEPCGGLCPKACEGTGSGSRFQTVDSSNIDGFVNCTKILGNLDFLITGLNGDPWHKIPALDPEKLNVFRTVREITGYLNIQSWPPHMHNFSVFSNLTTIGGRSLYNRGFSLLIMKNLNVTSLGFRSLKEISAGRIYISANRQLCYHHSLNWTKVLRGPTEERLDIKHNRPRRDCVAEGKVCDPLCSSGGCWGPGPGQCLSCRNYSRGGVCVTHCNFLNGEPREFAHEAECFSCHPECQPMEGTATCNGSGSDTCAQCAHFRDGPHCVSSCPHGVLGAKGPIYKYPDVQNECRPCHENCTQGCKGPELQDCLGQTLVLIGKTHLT
Experimental: as §3

[9] = biological target: T5, recombinant HER2 extracellular domain (Homo sapiens, UniProt P04626); assay: ELISA, immune serum binding to recombinant HER2 extracellular domain; conditions: serum 1:100 dilution
T5 construct: The extracellular domain of HER2 was a kind gift of Dr. Daniel Leahy
Experimental: as §3

Immune serum binding to HER3 p574 peptide by ELISA (HER3 p574 peptide) | Immune serum binding to HER2 p585 peptide by ELISA (HER2 p585 peptide) | Immune serum binding to HER3 extracellular domain by ELISA [8] | Immune serum binding to HER2 extracellular domain by ELISA [9] | Molecule | Staining of A431 cells by flow cytometry (human EGFR on A431 cells) | Immune serum binding to homologous HER4 p578 peptide (HER4 p578 peptide) | T cell response to Asp and iso-Asp p580 [6] | Tumor size versus adjuvant alone (PBS-CFA) (TUBO-EGFR cells) | Binding to MDA-MB-453 cells by flow cytometry [7] | Antibodies elicited by immunization, binding to EGFR peptides by ELISA (EGFR peptides) | further results
– | – | – | – | IQCAHYIDGPHCVKTCPAG [EGFR p580, EGFR peptide p580-598, isoform not specified at the place (Asp and iso-Asp isoforms)] | bind to the EGFR overexpressing human A431 epidermoid carcinoma cell line at an epitope distinct from that recognized by cetuximab | – | – | – | – | – | ADCC killing of A431 cells (A431 cells [1]): exhibited significant killing; Autoimmunity, fur loss or skin pathology in immunized mice [2]: no signs of aberrant tissue autoimmunity; ADCC killing of MDA-MB-453 cells (MDA-MB-453 cells [3]): significantly induced ADCC killing
– | – | – | – | Rituximab: human anti-CD20 monoclonal antibody | – | – | – | – | – | – | A431 cell growth inhibition (A431 cells [4]): did not inhibit any A431 growth; MDA-MB-453 cell growth inhibition (MDA-MB-453 cells [5]): failed to inhibit
– | – | – | – | VACAHYKDPPFCVA [p585-598 HER2 peptide] | – | – | – | – | – | – | Elicited antibodies binding to native HER2 (native HER2): failed to elicit antibodies that bound strongly to native HER2
bound | bound | bound | bound | CC[C@H](C)[C@H](N)C(=O)N[C@@H](CCC(N)=O)C(=O)N[C@@H](CS)C(=O)N[C@@H](C)C(=O)N[C@@H](Cc1c[nH]cn1)C(=O)N[C@@H](Cc1ccc(O)cc1)C(=O)N[C@H](C(=O)N[C@@H](CC(=O)NCC(=O)N1CCC[C@H]1C(=O)N[C@@H](Cc1c[nH]cn1)C(=O)N[C@@H](CS)C(=O)N[C@H](C(=O)N[C@@H](CCCCN)C(=O)N[C@H](C(=O)N[C@@H](CS)C(=O)N1CCC[C@H]1C(=O)N[C@@H](C)C(=O)NCC(=O)O)[C@@H](C)O)C(C)C)C(=O)O)[C@@H](C)CC [isoAsp EGFR p580] (H-IQCAHYI[βAsp]GPHCVKTCPAG-OH; N-terminus and C-terminus assumed) | – | neither Asp nor isoAsp EGFR p580 antisera bound | more robust response | significantly smaller tumors | showed affinity | sera bound strongly to both isoforms of p572 and Asp 596 | Immune serum binding to homologous HER4 p578 peptide (HER4 p578 peptide; listed as iso-Asp EGFR p580): neither the Asp nor iso-Asp EGFR p580 antiserum bound; Binding to A431 cells relative to Asp-isoform counterpart (human EGFR on A431 cells; flow cytometry): ~10 fold; Shift in staining intensity of A431 cells (human EGFR on A431 cells; immune sera, flow cytometry): > 10 fold
bound | bound | bound | bound | CC[C@H](C)[C@H](N)C(=O)N[C@@H](CCC(N)=O)C(=O)N[C@@H](CS)C(=O)N[C@@H](C)C(=O)N[C@@H](Cc1c[nH]cn1)C(=O)N[C@@H](Cc1ccc(O)cc1)C(=O)N[C@H](C(=O)N[C@@H](CC(=O)O)C(=O)NCC(=O)N1CCC[C@H]1C(=O)N[C@@H](Cc1c[nH]cn1)C(=O)N[C@@H](CS)C(=O)N[C@H](C(=O)N[C@@H](CCCCN)C(=O)N[C@H](C(=O)N[C@@H](CS)C(=O)N1CCC[C@H]1C(=O)N[C@@H](C)C(=O)NCC(=O)O)[C@@H](C)O)C(C)C)[C@@H](C)CC [Asp EGFR p580] (H-IQCAHYIDGPHCVKTCPAG-OH; N-terminus and C-terminus assumed) | stained A431 cells above that seen with pre-immune sera | neither Asp nor isoAsp EGFR p580 antisera bound; also recorded: neither the Asp nor iso-Asp EGFR p580 antiserum bound | strong T cell responses to both Asp and iso-Asp p580 | significantly smaller tumors | showed affinity | generated antibodies against Asp and iso-Asp p580, as well as Asp and iso-Asp p572 and Asp p596 | –
